According to patent US10799605B2 (3B PHARMACEUTICALS GMBH, priority 2014, dated 2020):

What was measured:
AT1 (h) = AT1 (h) (Homo sapiens (Human), UniProt P30556); assay: ExpresSProfile: angiotensin receptor 1, antagonist radioligand; assay type: binding; settings: Reference Compound
beta 1 (h) = beta 1 (h) (Homo sapiens (Human), UniProt P08588); assay: ExpresSProfile: beta1 adrenergic receptor, agonist radioligand; assay type: binding; settings: Reference Compound
M2 (h) = M2 (h) (Homo sapiens (Human), UniProt P08172); assay: ExpresSProfile: muscarinic receptor 2, antagonist radioligand; assay type: binding; settings: Reference Compound
KV channel = assay: ExpresSProfile: KV channel, antagonist radioligand; assay type: binding; settings: Reference Compound
alpha 2 (non-selective) = assay: ExpresSProfile: alpha2 adrenergic receptor, antagonist radioligand; assay type: binding; settings: Reference Compound
M3 (h) = M3 (h) (Homo sapiens (Human), UniProt P20309); assay: ExpresSProfile: muscarinic receptor 3, antagonist radioligand; assay type: binding; settings: Reference Compound
B2 (h) = B2 (h) (Homo sapiens (Human), UniProt P30411); assay: ExpresSProfile: bradykinin receptor 2, agonist radioligand; assay type: binding; settings: Reference Compound
NK3 (h) = NK3 (h) (Homo sapiens (Human), UniProt P29371); assay: ExpresSProfile: neurokinin receptor 3, antagonist radioligand; assay type: binding; settings: Reference Compound
SKCa channel = assay: ExpresSProfile: SKCa channel, antagonist radioligand; assay type: binding; settings: Reference Compound
NK2 (h) = NK2 (h) (Homo sapiens (Human), UniProt P21452); assay: ExpresSProfile: neurokinin receptor 2, agonist radioligand; assay type: binding; settings: Reference Compound
dopamine transporter (h) = dopamine transporter (h) (Homo sapiens (Human), UniProt Q01959); assay: ExpresSProfile: dopamine transporter, antagonist radioligand; assay type: binding; settings: Reference Compound
5-HT1B = 5-HT1B (Rattus norvegicus, UniProt P28564); assay: ExpresSProfile: 5-hydroxytryptamine receptor 1B, antagonist radioligand; assay type: binding; settings: Reference Compound
5-HT6 (h) = 5-HT6 (h) (Homo sapiens (Human), UniProt P50406); assay: ExpresSProfile: 5-hydroxytryptamine receptor 6, agonist radioligand; assay type: binding; settings: Reference Compound
BZD (central) = assay: ExpresSProfile: benzodiazepine, agonist radioligand; assay type: binding; settings: Reference Compound
GABA (non-selective) = assay: ExpresSProfile: GABA, agonist radioligand; assay type: binding; settings: Reference Compound
mu (MOP) (h) = mu (MOP) (h) (Homo sapiens (Human), UniProt P35372); assay: ExpresSProfile: mu opioid receptor, agonist radioligand; assay type: binding; settings: Reference Compound
NTR1 [1] = target: T1, NTR1 (Homo sapiens (Human), UniProt P30989); assay: Functional Ca2+ mobilisation assay (example part II); assay type: cell-based; settings: antagonist assay
Text: Ca^2+ ions are usually kept at nanomolar levels in the cytosol of cells, and act in a number of signal transduction pathways as second messengers. […] Changes in calcium ion concentration in standard assay protocols can be readily detected with fluorescent dyes that emit light when changes in intracellular Ca2^+ ion concentration occur. Given the transient nature of these responses, they are often read with instrumentation that has ‘inject and read’ capability.
HT29 or NTR1-expressing HEK293 cells were trypsinized and seeded into black flat clear-bottom 96-well plates (Corning, Amsterdam, The Netherlands) at 6×10^5 cells per well. After 24 h incubation at 37° C. and 5% CO2, cells were washed twice with wash buffer (130 mM NaCl, 5 mM KCl, 10 mM Hepes, 2 mM CaCl2, 10 mM Glucose, pH 7.4) and loaded with 100 μl of Ca5 dye (Molecular Devices, Biberach, Germany) for 1 h at 37° C. and 5% CO2. For agonist assays, serial dilutions of agonistic substances were added to the cells loaded with dye and the change of the fluorescent signal was recorded continually for approx. 90 s using a FlexStation II (Molecular Devices, Biberach, Germany). Addition of wash buffer served as a control. Thus, EC50 concentrations for each compound were computed and provided a measure for the potency of the substance. For antagonist assays, cells loaded with 100 μl of Ca5-dye were pre-incubated with serial dilutions of antagonistic substances for 30 min, before the EC80-concentration of agonist was added to the cells and the change of the fluorescent signal was recorded continually for approx. 90 s. Thus, IC50 concentrations were computed for each compound and provided a measure for the inhibitory activity of the compounds at the NTR1.

NTR1 [2] = target: T1, NTR1; assay: Radioligand binding assay NTR1 (example part II); settings: 0.05 nM 125I-(Tyr3-neurotensin), 60 min at 4° C.; read-out: IC50 [nM] RLB
Method: In order to determine the binding affinity of compounds comprising a radiolabel for NTR1, a radioligand binding assay was carried out. A radioligand is a radioactive biochemical substance that is used for diagnosis or for research-oriented study of cellular receptor systems of the body. In […] systems it is often used to quantify the binding of a test molecule to the binding site of radioligand. The higher the affinity of the molecule, the more radioligand is displaced from the binding site. The amount of bound radioligand can be measured by scintillation counting and thereby quantified. This assay is commonly used to calculate binding constants of molecules to receptors.
The NTR1 radioligand binding assay was performed by Cerep (Celle l'Evescault, France; Catalog reference 0109) according to Vita et al., FEBS Lett., 1993, 317, 139-142. NTR1 was prepared from CHO cells recombinantly expressing the human receptor and incubated with 0.05 nM ^125I-(Tyr^3-neurotensin) and serial dilutions of the test compounds. […] The result for each test compound is expressed as IC50 concentration and provides a measure for the affinity of the test compound for NTR1.

D1 (h) = D1 (h) (Homo sapiens (Human), UniProt P21728); assay: ExpresSProfile: dopamine receptor 1, antagonist radioligand; assay type: binding; settings: Reference Compound
sst (non-selective) = assay: ExpresSProfile: somatostatin receptor, agonist radioligand; assay type: binding; settings: Reference Compound
5-HT3 (h) = 5-HT3 (h) (Homo sapiens (Human), UniProt P46098); assay: ExpresSProfile: 5-hydroxytryptamine channel 3, antagonist radioligand; assay type: binding; settings: Reference Compound
alpha 1 (non-selective) = assay: ExpresSProfile: alpha1 adrenergic receptor, antagonist radioligand; assay type: binding; settings: Reference Compound
5-HT2B (h) = 5-HT2B (h) (Homo sapiens (Human), UniProt P41595); assay: ExpresSProfile: 5-hydroxytryptamine receptor 2B, agonist radioligand; assay type: binding; settings: Reference Compound
D2S (h) = D2S (h) (Homo sapiens (Human), UniProt P14416); assay: ExpresSProfile: dopamine receptor 2S, antagonist radioligand; assay type: binding
CXCR2 (IL-8B) (h) = CXCR2 (IL-8B) (h) (Homo sapiens (Human), UniProt P25025); assay: ExpresSProfile: C-X-C chemokine receptor type 2, agonist radioligand; assay type: binding; settings: Reference Compound
EP4 (h) = EP4 (h) (Homo sapiens (Human), UniProt P35408); assay: ExpresSProfile: prostaglandin e receptor type 4, agonist radioligand; assay type: binding; settings: Reference Compound
Cl-channel (GABA-gated) = assay: ExpresSProfile: Cl-channel, antagonist radioligand; assay type: binding; settings: Reference Compound
MT1 (ML1A) (h) = MT1 (ML1A) (h) (Homo sapiens (Human), UniProt P48039); assay: ExpresSProfile: melatonin receptor 1, agonist radioligand; assay type: binding; settings: Reference Compound
CB1 (h) = CB1 (h) (Homo sapiens (Human), UniProt P21554); assay: ExpresSProfile: cannabinoid receptor 1, agonist radioligand; assay type: binding; settings: Reference Compound
5-HT2A (h) = 5-HT2A (h) (Homo sapiens (Human), UniProt P28223); assay: ExpresSProfile: 5-hydroxytryptamine receptor 2A, antagonist radioligand; assay type: binding; settings: Reference Compound

T1 sequence (P30989 whole entry): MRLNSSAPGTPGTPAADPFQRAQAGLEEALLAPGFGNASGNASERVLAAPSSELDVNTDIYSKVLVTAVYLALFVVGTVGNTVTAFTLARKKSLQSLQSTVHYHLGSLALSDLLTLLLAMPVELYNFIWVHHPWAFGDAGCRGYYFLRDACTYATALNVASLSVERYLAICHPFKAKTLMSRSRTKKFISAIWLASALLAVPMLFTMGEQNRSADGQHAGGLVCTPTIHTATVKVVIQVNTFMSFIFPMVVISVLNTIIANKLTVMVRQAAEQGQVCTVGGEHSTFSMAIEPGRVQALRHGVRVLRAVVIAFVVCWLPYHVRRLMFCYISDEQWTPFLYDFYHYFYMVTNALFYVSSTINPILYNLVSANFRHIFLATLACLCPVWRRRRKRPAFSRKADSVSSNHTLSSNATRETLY
Chain of 5-HT2B (h) (P41595 whole entry): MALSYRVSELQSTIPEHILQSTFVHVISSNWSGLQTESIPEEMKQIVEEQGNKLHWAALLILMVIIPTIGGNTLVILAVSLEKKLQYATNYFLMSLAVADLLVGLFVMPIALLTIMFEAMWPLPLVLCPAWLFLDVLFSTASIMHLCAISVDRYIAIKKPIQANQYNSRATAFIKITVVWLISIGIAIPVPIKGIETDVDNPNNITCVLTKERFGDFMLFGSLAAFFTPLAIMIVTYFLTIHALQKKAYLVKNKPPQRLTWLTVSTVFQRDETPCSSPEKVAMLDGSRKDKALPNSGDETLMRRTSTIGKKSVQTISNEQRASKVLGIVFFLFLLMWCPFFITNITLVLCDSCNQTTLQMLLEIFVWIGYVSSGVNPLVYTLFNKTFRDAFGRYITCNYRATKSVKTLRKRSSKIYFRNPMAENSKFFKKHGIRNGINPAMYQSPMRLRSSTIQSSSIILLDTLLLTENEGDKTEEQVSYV
Chain of M3 (h) (P20309 whole entry): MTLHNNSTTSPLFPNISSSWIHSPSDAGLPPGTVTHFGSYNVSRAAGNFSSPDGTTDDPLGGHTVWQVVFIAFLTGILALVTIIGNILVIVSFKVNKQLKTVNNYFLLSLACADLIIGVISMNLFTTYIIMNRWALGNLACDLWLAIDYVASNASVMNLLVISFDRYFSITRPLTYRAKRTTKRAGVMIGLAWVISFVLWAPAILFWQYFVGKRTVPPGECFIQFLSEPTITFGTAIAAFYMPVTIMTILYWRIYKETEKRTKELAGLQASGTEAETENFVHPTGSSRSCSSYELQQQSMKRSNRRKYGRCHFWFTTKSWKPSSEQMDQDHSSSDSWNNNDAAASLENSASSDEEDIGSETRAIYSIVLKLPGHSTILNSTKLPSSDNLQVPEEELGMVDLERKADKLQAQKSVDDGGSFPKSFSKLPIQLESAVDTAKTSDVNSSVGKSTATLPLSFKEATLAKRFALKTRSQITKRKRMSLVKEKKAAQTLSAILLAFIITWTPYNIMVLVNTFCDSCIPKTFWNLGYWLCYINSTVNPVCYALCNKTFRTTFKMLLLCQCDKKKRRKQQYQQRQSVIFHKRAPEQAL
Chain of dopamine transporter (h) (Q01959 whole entry): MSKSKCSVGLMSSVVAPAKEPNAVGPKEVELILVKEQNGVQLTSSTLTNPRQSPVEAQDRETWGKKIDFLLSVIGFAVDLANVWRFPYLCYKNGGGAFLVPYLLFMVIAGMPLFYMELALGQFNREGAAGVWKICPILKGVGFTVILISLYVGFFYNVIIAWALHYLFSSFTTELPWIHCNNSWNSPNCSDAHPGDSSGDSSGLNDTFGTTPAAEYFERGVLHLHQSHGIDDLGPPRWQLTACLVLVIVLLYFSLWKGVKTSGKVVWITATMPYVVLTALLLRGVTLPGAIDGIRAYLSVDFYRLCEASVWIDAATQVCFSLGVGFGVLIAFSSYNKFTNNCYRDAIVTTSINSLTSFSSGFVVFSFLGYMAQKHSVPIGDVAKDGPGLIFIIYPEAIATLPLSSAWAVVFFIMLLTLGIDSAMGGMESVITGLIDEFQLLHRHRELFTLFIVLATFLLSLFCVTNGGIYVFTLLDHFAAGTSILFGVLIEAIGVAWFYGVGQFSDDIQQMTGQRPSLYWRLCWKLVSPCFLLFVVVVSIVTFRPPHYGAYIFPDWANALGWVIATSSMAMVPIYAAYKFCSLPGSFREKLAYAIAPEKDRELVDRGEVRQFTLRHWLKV
Chain of D1 (h) (P21728 whole entry): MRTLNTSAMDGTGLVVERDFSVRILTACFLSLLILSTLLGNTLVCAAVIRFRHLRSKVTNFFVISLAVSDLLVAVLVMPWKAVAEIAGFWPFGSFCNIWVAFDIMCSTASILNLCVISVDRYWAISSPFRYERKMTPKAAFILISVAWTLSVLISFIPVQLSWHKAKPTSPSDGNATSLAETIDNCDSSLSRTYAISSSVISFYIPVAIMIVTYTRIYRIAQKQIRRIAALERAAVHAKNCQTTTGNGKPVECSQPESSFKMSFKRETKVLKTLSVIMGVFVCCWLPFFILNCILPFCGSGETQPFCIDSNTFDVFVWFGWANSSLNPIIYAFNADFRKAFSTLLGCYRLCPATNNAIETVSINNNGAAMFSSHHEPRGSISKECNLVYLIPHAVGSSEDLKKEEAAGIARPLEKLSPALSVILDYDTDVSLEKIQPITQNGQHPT
Chain of NK3 (h) (P29371 whole entry): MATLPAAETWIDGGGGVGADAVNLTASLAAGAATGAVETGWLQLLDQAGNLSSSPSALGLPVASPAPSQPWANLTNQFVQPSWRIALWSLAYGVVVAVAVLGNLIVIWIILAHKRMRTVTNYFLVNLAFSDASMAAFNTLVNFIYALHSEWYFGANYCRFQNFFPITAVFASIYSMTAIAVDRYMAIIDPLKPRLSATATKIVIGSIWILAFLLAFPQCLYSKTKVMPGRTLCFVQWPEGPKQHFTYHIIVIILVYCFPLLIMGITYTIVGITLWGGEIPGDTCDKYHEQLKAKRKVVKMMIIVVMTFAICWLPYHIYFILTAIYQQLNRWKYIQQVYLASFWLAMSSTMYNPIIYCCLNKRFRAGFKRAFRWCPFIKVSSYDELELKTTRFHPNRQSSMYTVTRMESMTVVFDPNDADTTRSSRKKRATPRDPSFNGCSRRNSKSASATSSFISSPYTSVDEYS
Chain of EP4 (h) (P35408 whole entry): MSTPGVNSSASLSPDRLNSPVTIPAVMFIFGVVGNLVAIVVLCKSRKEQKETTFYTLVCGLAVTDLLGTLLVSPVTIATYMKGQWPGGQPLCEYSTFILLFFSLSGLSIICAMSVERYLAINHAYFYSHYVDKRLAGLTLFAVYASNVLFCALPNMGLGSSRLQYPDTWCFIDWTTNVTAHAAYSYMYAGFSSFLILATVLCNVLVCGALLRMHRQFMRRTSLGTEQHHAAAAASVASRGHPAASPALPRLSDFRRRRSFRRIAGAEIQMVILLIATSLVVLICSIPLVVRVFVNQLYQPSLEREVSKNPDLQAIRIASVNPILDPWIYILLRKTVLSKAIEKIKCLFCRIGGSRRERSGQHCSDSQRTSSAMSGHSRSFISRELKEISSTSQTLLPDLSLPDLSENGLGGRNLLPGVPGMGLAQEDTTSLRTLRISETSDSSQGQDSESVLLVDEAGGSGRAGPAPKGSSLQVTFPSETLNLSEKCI
Chain of D2S (h) (P14416 other isoform, or with tags, fused parts or gaps): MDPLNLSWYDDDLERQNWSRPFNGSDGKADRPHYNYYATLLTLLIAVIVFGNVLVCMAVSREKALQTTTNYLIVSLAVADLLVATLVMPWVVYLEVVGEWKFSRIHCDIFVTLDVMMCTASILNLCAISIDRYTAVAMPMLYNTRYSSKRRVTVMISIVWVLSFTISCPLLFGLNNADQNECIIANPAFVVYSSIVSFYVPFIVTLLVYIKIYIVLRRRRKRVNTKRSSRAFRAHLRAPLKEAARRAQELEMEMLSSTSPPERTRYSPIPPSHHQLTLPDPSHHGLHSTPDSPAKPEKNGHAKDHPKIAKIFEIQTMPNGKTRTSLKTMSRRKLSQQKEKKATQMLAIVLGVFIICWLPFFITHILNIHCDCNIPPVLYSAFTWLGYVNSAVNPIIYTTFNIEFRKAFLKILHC
Chain of 5-HT6 (h) (P50406 whole entry): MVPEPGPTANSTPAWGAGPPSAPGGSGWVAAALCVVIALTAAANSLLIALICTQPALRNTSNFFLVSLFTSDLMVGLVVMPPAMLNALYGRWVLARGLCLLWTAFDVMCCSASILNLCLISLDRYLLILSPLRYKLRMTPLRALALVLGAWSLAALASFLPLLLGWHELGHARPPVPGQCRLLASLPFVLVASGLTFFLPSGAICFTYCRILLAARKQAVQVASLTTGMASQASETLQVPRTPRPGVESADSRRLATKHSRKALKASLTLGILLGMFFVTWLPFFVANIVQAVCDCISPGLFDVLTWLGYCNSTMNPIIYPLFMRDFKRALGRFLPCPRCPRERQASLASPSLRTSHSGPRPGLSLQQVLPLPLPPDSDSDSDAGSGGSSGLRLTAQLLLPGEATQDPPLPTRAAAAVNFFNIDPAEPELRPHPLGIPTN
Chain of B2 (h) (P30411 whole entry): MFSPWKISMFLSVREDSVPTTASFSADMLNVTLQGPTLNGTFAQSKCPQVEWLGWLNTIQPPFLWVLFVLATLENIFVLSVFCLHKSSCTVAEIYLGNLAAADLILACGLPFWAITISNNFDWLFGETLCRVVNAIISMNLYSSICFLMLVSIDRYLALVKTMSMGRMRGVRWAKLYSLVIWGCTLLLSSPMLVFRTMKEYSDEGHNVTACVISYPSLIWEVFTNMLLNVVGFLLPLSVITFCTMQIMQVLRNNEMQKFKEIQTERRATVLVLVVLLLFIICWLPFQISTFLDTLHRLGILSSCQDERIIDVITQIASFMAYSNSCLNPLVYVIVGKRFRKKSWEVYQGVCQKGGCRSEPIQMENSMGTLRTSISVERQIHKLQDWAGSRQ

CNCC(=O)N[C@@H](CCCN=C(N)N)C(=O)N[C@H](C(=O)N[C@@H](Cc1ccc(O)cc1)C(=O)N[C@H](C(=O)N[C@@H](Cc1cnc[nH]1)C(=O)N1CCC[C@H]1C(=O)N[C@@H](C)C(=O)O)C(C)C)C(C)C [saralasin]
nH Ref (AT1 (h)): 0.6

CC(C)NCC(O)COc1ccc(CC(N)=O)cc1 (centres unmarked) [atenolol]
nH Ref (beta 1 (h)): 0.9

COc1ccccc1CNCCCCCCNCCCCCCCCNCCCCCCNCc1ccccc1OC [methoctramine]
nH Ref (M2 (h)): 0.9

alpha-dendrotoxin (QPRRKLCILHRNPGRCYDKIPAFYYNQKKKQCERFDWSGCGGNSNRFKTIEECRRTCIG)
nH Ref (KV channel): 1.7 | Ki (KV channel; read-out: Ki Ref): 0.2 nM

COC(=O)[C@@H]1[C@H]2C[C@H]3c4[nH]c5ccccc5c4CCN3C[C@@H]2CC[C@@H]1O [yohimbine]
nH Ref (alpha 2 (non-selective)): 0.7

C[N+]1(C)CCC(OC(=O)C(c2ccccc2)c2ccccc2)CC1.[I-] [Compound 4-DAMP]
nH Ref (M3 (h)): 1.1

N=C(N)NCCC[C@@H](N)C(=O)N[C@@H](CCCNC(=N)N)C(=O)N1CCC[C@H]1C(=O)N1C[C@H](O)C[C@H]1C(=O)NCC(=O)N[C@@H](Cc1ccccc1)C(=O)N[C@@H](CO)C(=O)N[C@H](Cc1ccccc1)C(=O)N[C@@H](Cc1ccccc1)C(=O)N[C@@H](CCCNC(=N)N)C(=O)O [NPC 567]
nH Ref (B2 (h)): 0.9

CC[C@H](NC(=O)c1c(C)c(-c2ccccc2)nc2ccccc12)c1ccccc1 [SB 222200]
nH Ref (NK3 (h)): 0.9

CC(C)C[C@@H]1NC(=O)[C@H](C)NC(=O)[C@H]([C@@H](C)O)NC(=O)[C@H](CCC(=O)O)NC(=O)[C@@H]2CCCN2C(=O)[C@H](C)NC(=O)[C@H](CCCCN)NC(=O)[C@@H]2CSSC[C@@H](C(=O)N[C@@H](CCC(N)=O)C(=O)N[C@@H](CCC(N)=O)C(=O)N[C@@H](Cc3cnc[nH]3)C(N)=O)NC(=O)[C@H](CCCNC(=N)N)NC(=O)[C@H](CCCNC(=N)N)NC(=O)[C@H](C)NC(=O)[C@H](CSSC[C@H](N)C(=O)N[C@@H](CC(N)=O)C(=O)N2)NC1=O [apamin]
nH Ref (SKCa channel): 1.3

CCCC[C@H](NC(=O)[C@H](CC(C)C)NC(=O)CNC(=O)[C@@H](NC(=O)[C@H](Cc1ccccc1)NC(=O)[C@H](CO)NC(=O)[C@@H](N)CC(=O)O)C(C)C)C(N)=O [[Nleu10]-NKA (4-10)]
nH Ref (NK2 (h)): 0.8

c1ccc2sc(C3(N4CCCCC4)CCCCC3)cc2c1 [BTCP]
nH Ref (dopamine transporter (h)): 1.0

NCCc1c[nH]c2ccc(O)cc12 [serotonin]
nH Ref (5-HT1B): 0.9 | nH Ref (5-HT6 (h)): 0.8

CN1C(=O)CN=C(c2ccccc2)c2cc(Cl)ccc21 [diazepam]
nH Ref (BZD (central)): 1.1

NCCCC(=O)O [GABA, γ-aminobutyric acid, reference compound]
nH Ref (GABA (non-selective)): 0.8

C[C@@H](NC(=O)[C@@H](N)Cc1ccc(O)cc1)C(=O)NCC(=O)N(C)[C@@H](Cc1ccccc1)C(=O)NCCO [DAMGO]
nH Ref (mu (MOP) (h)): 1.0

COc1cccc(OC)c1-c1cc(C(=O)NC2(C(=O)O)C3CC4CC(C3)CC2C4)nn1-c1ccc(C(=O)N(C)CCCN(C)CCCN(C)C(=O)CCC(=O)NCCCOCCOCCOCCCNC(=O)CN2CCN(CC(=O)O)CCN(CC(=O)O)CCN(CC(=O)O)CC2)cc1C(C)C (centres unmarked) [(IIIb), 2-{[1-(4-{[3-({3-[(DOTA-Ttds)-methyl-amino]-propyl}-methyl-amino)-propyl]-methyl-carbamoyl}-2-isopropyl-phenyl)-5-(2,6-dimethoxy-phenyl)-1H-pyrazole-3-carbonyl]-amino}-adamantane-2-carboxylic acid]
IC50 (NTR1 [1]): 16.6 nM | IC50 (NTR1 [2]): 5.2 nM

CN1CCc2cc(Cl)c(O)cc2[C@@H](c2ccccc2)C1 [SCH 23390]
nH Ref (D1 (h)): 0.9

somatostatin-14
nH Ref (sst (non-selective)): 0.8 | Ki (sst (non-selective); read-out: Ki Ref): 0.11 nM

CN1[C@@H]2CC[C@H]1C[C@@H](OC(=O)c1cc(Cl)cc(Cl)c1)C2 [MDL 72222]
nH Ref (5-HT3 (h)): 0.8

COc1cc2nc(N3CCN(C(=O)c4ccco4)CC3)nc(N)c2cc1OC [prazosin]
nH Ref (alpha 1 (non-selective)): 1.2

COc1cc(CC(C)N)c(OC)cc1I (racemic) [(±)DOI]
nH Ref (5-HT2B (h)): 1.0 | Ki (5-HT2B (h); read-out: Ki Ref): 3.1 nM

(+)butaclamol
nH Ref (D2S (h)): 1.0

IL-8
nH Ref (CXCR2 (IL-8B) (h)): 1.4

CCCCC[C@H](O)/C=C/[C@H]1[C@H](O)CC(=O)[C@@H]1C/C=C\CCCC(=O)O [PGE2]
nH Ref (EP4 (h)): 1.1

C=C(C)[C@@H]1[C@H]2OC(=O)[C@@H]1[C@]1(O)C[C@H]3O[C@]34C(=O)O[C@H]2[C@]14C [picrotoxinin]
nH Ref (Cl-channel (GABA-gated)): 0.9

COc1cccc(OC)c1-c1cc(C(=O)NC2(C(=O)O)C3CC4CC(C3)CC2C4)nn1-c1ccc(C(=O)N(CCCN)CCCN(C)C)cc1C(C)C (centres unmarked) [(V), 2-{[1-{4-[(3-Amino-propyl)-(3-dimethylamino-propyl)-carbamoyl]-2-isopropyl-phenyl}-5-(2,6-dimethoxy-phenyl)-1H-pyrazole-3-carbonyl]-amino}-adamantane-2-carboxylic acid]
IC50 (NTR1 [1]): 8.95 nM | IC50 (NTR1 [2]): 5.3 nM

COc1ccc2[nH]cc(CCNC(C)=O)c2c1 [melatonin]
nH Ref (MT1 (ML1A) (h)): 0.9

CCCCCCC(C)(C)c1ccc([C@@H]2C[C@H](O)CC[C@H]2CCCO)c(O)c1 [CP 55940]
nH Ref (CB1 (h)): 0.8

O=C(c1ccc(F)cc1)C1CCN(CCn2c(=O)[nH]c3ccccc3c2=O)CC1 [ketanserin]
nH Ref (5-HT2A (h)): 1.0
